Data set [1] in a line: Analysis of drug stability in PBS. The class given is physicochemical. As to conditions: equimolar mixtures with DOXO, PBS (pH 7.4), 37 °C, 7 to 14 days. The method, then: The samples were prepared in PBS (pH 7.4) containing 0.05% (v/v) Tween-80 and 0.5% (v/v) DMSO. […] The samples were placed into 2 mL HPLC vials, sealed, and incubated at 37 °C for 7 to 14 days. Every 24 h, 20 µL aliquots were taken for HPLC analysis.

In data set [2] the test system is HMEC-1 cells. The experiment in a line: MTT cytotoxicity / synergy assay, 72 h, HMEC-1. As to conditions: read-out: IC50 Value in Specific Cell Line, HMEC-1; for CC50: Homo sapiens, HMEC-1, 72 h.
Protocol: (§1) The synergistic effects of drug combinations were studied in various cancer cell lines, including MCF-7 (human breast cancer), A549 (human lung cancer), U-87 MG (human malignant glioma), HepG2 (human liver cancer), and HUH7 (human liver cancer). HMEC-1, an immortalized human microvascular endothelial cell line, was used as a model for normal cells. All cell lines were purchased from ATCC (Rockville, MD, USA).
(§2) The cancer cell lines were cultured in Dulbecco’s Modified Eagle’s Medium (DMEM; Sigma-Aldrich) supplemented with 10% FBS and 1% penicillin/streptomycin mixture (10,000 U/mL penicillin and 10 mg/mL streptomycin; Sigma-Aldrich) at 37 °C in a humidified atmosphere with 5% CO2.
(§3) For the MTT assay, exponentially growing cells were seeded into 96-well plates at a density of 5 × 10³ cells per well. After 24 h of incubation, the medium was replaced with 100 µL of fresh medium containing the tested compounds. After 72 h of treatment, cell viability was assessed using the MTT assay as described earlier. […] IC50 values were calculated using GraphPad Prism 9 software (GraphPad Software).
Data set [3] has as its system HepG2 cells. The experiment in a line: MTT cytotoxicity / synergy assay, 72 h, HepG2.
Protocol: as §1, §2, §3
The subject of data set [4] is MCF-7 cells. Kind of data set: MTT cytotoxicity / synergy assay, 72 h, MCF-7. The class given is cell-based, human. The note with it: 72 h; for IC50: MTT, n.d. = IC50 not achieved within concentrations tested, read-out: IC50 Value in Specific Cell Line, MCF-7; for decrease in cell viability caused by 0.05% Tween-80: with vs. without 0.05% Tween-80. The method, then: Stock solutions of the tested compounds were first prepared in DMSO at 200-fold the intended final concentration. […] The cells were treated for 72 h under the same conditions.
Following treatment, 25 μL of MTT solution was added to each well, and the plates were incubated for 2 h at 37 °C. […] IC₅₀ values, indicating the concentration required to reduce cell viability by 50% compared to untreated controls (set as 100% viability), were calculated using GraphPad Prism 9 software (GraphPad Software, San Diego, CA, USA). All data from this preliminary cytotoxic assay were analyzed by ANOVA followed by Tukey’s post hoc test for multiple comparisons, with significance set at p < 0.05. A similar statistical approach was used for the rest of the experimental work presented in this study.

The subject of data set [5] is 4T1 breast cancer and B16F10 melanoma xenografts. The note with it: 4T1, B16F10 xenografts, MMTV-PyMT; cited from earlier work.
Data set [6] concerns HuH7 cells. The experiment in a line: MTT cytotoxicity / synergy assay, 72 h, HuH7. The note with it: Homo sapiens; for IC50: Huh-7, 72 h, read-out: IC50 Value in Specific Cell Line, HuH7.
Protocol: as §1, §2, §3
The subject of data set [7] is A549, HepG2, MCF-7, and U-87MG. Kind of data set: Doxorubicin accumulation assay, sensitive cell lines. The format is cell-based, human. The method, then:
Cells were seeded at a density of 2 × 10^4 cells per well in black 96-well plates as described in Section 3.6.

The subject of data set [8] is U-87MG cells. Kind of data set: MTT cytotoxicity / synergy assay, 72 h, U-87MG. The format is cell-based. The note with it: Homo sapiens, n.d. = IC50 not achieved within concentrations tested, read-out: IC50 Value in Specific Cell Line, U-87MG.
Protocol: as §1, §2, §3
Data set [9] is described as follows: Hemolysis (Drabkin's method). The class given is cell-based. As to conditions: human, washed erythrocyte (RBC) suspension, 40% hematocrit, pH 7.4, single drug, RT, dark, CTRL− 11.6%. The method, then: Blood samples were collected from healthy human volunteers into Vacutainer tubes containing 3% sodium citrate (BD Biosciences, Warsaw, Poland). Whole blood was centrifuged at 1500 rpm (RCF = 214 g) for 10 min in a CompactStar CS4 centrifuge (VWR) at RT to separate erythrocytes, which were washed twice with PBS (pH 7.4) and centrifuged at 1500 rpm for 5 min at RT after each wash. Hematocrit was measured to adjust the final RBC concentration in PBS (pH 7.4) to 40%. The drugs were then dissolved in the RBC suspension at the final concentrations outlined in Figure 8. RBCs incubated in dH2O were used as a positive control (100% hemolysis), while RBCs in PBS were used as the negative control. A blank sample of PBS without RBCs or drugs provided a baseline for absorbance measurements. Experimental samples, along with positive, negative, and vehicle (0.5% DMSO) controls, were incubated for 4 h at RT in the dark. After incubation, the samples were centrifuged at 1500 rpm for 5 min at RT, and the supernatant was collected to measure hemoglobin release using Drabkin’s method. Absorbance was measured at 540 nm with a Jenway 6305 UV/Vis spectrophotometer (Bibby Scientific, Staffordshire, UK). This study was conducted in triplicate. The percentage of hemolysis was calculated by comparing the absorbance at 540 nm (OD540) of the test sample with that of the positive control using the following formula:(2) % Hemolysis=OD540Test−OD540(Blank)/OD540Total Lysis−OD540(Blank)×100%

The test system of data set [10] is A549 cells. Kind of data set: MTT cytotoxicity / synergy assay, 72 h, A549. The note with it: Homo sapiens, A549, 72 h, read-out: IC50 Value in Specific Cell Line, A549.
Protocol: as §1, §2, §3
Data set [11] deals with mammary tumors. As to conditions: 20 days; GLIB 0.06 mg/kg/day orally, tamoxifen 1 mg/kg/day s.c.; cited from earlier work.
The subject of data set [12] is mammary tumors. As to conditions: 20 days; GLIB 0.06 mg/kg/day orally, tamoxifen 1 mg/kg/day s.c.; cited from earlier work. This is another data set of the same source.
In data set [13] the target is BSA. The arrangement: method as in PMID 29772022. The note with it: read-out: Kd (binding to BSA); cited from earlier work.
In data set [14] the test system is MRP1. As to conditions: cited from earlier work.
The subject of data set [15] is MCF-7 cells. As to conditions: read-out: IC50 value, MCF-7; cited from earlier work.
In data set [16] the test system is A549 cells. As to conditions: human.
Protocol: as §1, §2, §3
The test system of data set [17] is HepG2 cells. The note with it: human.
Protocol: as §1, §2, §3
On the set-up of data set [18]: method as in Figure S2 [39–71]. As to conditions: ref Figure S2 [39–71]; cited from earlier work.
A short description of data set [19]: DLS particle size measurements. The class given is physicochemical. The note with it: 100–500 µM CHLO, […] BSA, 0.05% Tween-80. The method, then: Dynamic light scattering (DLS) measurements were performed using a Zetasizer Nano ZS instrument (Malvern Instruments, Malvern, UK). Samples of 2 mL were placed in disposable PMMA cuvettes (cat. #634-0677; VWR, Gdańsk, Poland) and measured at 37 °C. To ensure accuracy, each sample was measured at least three times. The data were processed using DTS v6.2 software (Malvern Instruments).

The subject of data set [20] is HSA. Further details: method as in Figure S2 [39–71]. The note with it: ref Figure S2 [39–71]; cited from earlier work.
The mark [21] stands for this setting: Homo sapiens, HepG2, 72 h, read-out: IC50 Value in Specific Cell Line, HepG2.

Values after ≈ are worked out from the molar mass of the structure shown. Read-outs that look alike come from different tables or passages of the source.

For orientation: IC50 means the concentration at which inhibition is half-maximal. What is called Kd is the concentration at which binding is half-saturated. As usually defined, the viability is a read-out of living cells in per cent, often relative to untreated cells. In general, solubility refers to the concentration that dissolves in the medium under given conditions.

On to `Cc1ccc(S(=O)(=O)NC(=O)NN2CCCCCC2)cc1` [TOLA, Tolazamide], for which the stability entry in [1] is on record as “slow but noticeable degradation”. In addition, in [2], the CC50 is 468.6 ± 0.5 µM. Also, the IC50 in data set [3] (setting [21]) was determined as 470 ± 12.4 µM.

As for `CCCCNC(=O)NS(=O)(=O)c1ccc(N)cc1` [CARB, Carbutamide], the IC50 in data set [3] (setting [21]) was found to be 70.7 ± 1.4 µM.

Consider `CCCCNC(=O)NS(=O)(=O)c1ccc(C)cc1` [TOLB, Tolbutamide], for which the IC50 in data set [4] (Homo sapiens, MCF7) came to 461 ± 53.9 µM; in [3] (setting [21]), 232 ± 21.6 µM. Moreover, the CC50 in data set [2] worked out at 88.2 ± 4.1 µM.

Consider `Cc1cnc(C(=O)NCCc2ccc(S(=O)(=O)NC(=O)NC3CCCCC3)cc2)cn1` [GLIP, Glipizide], for which the IC50 in data set [4] (Homo sapiens, MCF7) was 339 ± 18.8 µM; in data set [3] (setting [21]), 229 ± 10.9 µM; in data set [6] it was 421.9 ± 0.5 µM. For the same compound, the CC50 in data set [2] worked out at 454.1 ± 1.8 µM. In [5], the “effect on tumor growth and metastasis” value is “inhibited tumor growth and metastasis”.

`COc1ccc2c(c1)C(=O)N(CCc1ccc(S(=O)(=O)NC(=O)NC3CCCCC3)cc1)C(=O)C2(C)C` [GLIQ, Gliquidone]: the “increase of DOXO levels” value in [7] was “up to 2.3 times”. Also, the concentration for half-maximal inhibition (IC50) in data set [4] (Homo sapiens, MCF7) is 68.8 ± 2.5 µM; in [8] it was 57.1 ± 1.8 µM; in data set [10] it was 259 ± 16.3 µM; in data set [3] (setting [21]), 39.6 ± 2.6 µM; in data set [6], 400.7 ± 2.2 µM. For the same compound, in data set [2], the CC50 stood at 157 ± 2.2 µM. The compound also displayed a hemolysis at 4 h in data set [9] of 11.2 to 11.9%.

For `CC/C(=C(\c1ccccc1)c1ccc(OCCN(C)C)cc1)c1ccccc1` [tamoxifen], the tumors responded in data set [11] was 75%. Besides, the “tumors responded (regressed or remained stable)” value in data set [12] is given as 57%.

As to `COCCCNC(=O)NS(=O)(=O)c1ccc(C)cc1` [MESU, N-(3-methoxy-propyl)-N’-(toluene-4-sulfoyl)-urea], the IC50 worked out at 495.9 ± 0.8 µM in [4]; 78.3 ± 2.4 µM in [2] (MTT, 72 h, n.d. = IC50 not achieved within concentrations tested); 63.1 ± 0.3 µM in data set [3] (read-out: IC50 Value in Specific Cell Line, HepG2, MTT, 72 h, n.d. = IC50 not achieved within concentrations tested).

Consider Tween-80, for which the “concentration above which survival of MCF-7 cells is significantly reduced” value in data set [4] is given as “above 0.05 % (v/v)”.

`COc1ccc(Cl)cc1C(=O)NCCc1ccc(S(=O)(=O)NC(=O)NC2CCCCC2)cc1` [GLIB, Glibenclamide]: the Kd in [13] was 0.67 µM. Further, the tumors responded result in data set [11] was “no response”. The CC50 in [2] was 248 ± 3.6 µM. In addition, the “tumors responded (regressed or remained stable)” value in data set [12] is reported as 64%. Moreover, the “concentration increasing intracellular accumulation of calcein” value in [14] is recorded as no less than 3.12 µM. In addition, the results for the IC50 in [6] and in [15] were 493.2 ± 1.3 µM and 325 µM, respectively.

Regarding `Cc1ccc(S(=O)(=O)NC(=O)NN2CC3CCCC3C2)cc1` (stereo not shown) [GLIC, Gliclazide], in data set [13], the Kd was 155 µM. The concentration for half-maximal inhibition (IC50) in [4] (Homo sapiens, MCF7, 72 h) was 87.9 µM; in data set [15], 216 µM. The stability result in data set [1] is listed as “slow but noticeable degradation”. For the same compound, the CC50 in data set [2] is 447.7 ± 2.3 µM.

Compound `COc1cccc2c1C(=O)c1c(O)c3c(c(O)c1C2=O)C[C@@](O)(C(=O)CO)C[C@@H]3O[C@H]1C[C@H](N)[C@H](O)[C@H](C)O1` [DOXO, Doxorubicin] yielded an A549 cell viability in data set [16] of 0.643 ± 0.002. In addition, in data set [4], the “decrease in cell viability caused by 0.05% Tween-80” value is 12.6%. Moreover, the IC50 in [4] (Homo sapiens, MCF7) stood at 0.46 ± 0.06 µM; in data set [8], 0.57 ± 0.11 µM; in data set [10], 0.27 ± 0.02 µM; in data set [3] (setting [21]), 0.3 ± 0.01 µM; in data set [6] it was 0.28 ± 0.02 µM. The CC50 in [2] was found to be 0.08 ± 0.01 µM. In data set [9], this compound yielded a hemolysis at 4 h of 32.3%. For the same compound, in [17], the HepG2 cell viability is 0.695 ± 0.003. Further, the viability at 0.65 µM in data set [6] (Huh-7, read-out: HuH7 cell viability) was 53.5 ± 0.4%.

`CCCNC(=O)NS(=O)(=O)c1ccc(Cl)cc1` [CHLO, Chlorpropamide]: in data set [7], the “increase of DOXO levels” value is “up to 2.3 times”. For the same compound, the solubility in [18] is 1000 µM (≈ 277 µg/mL). The aggregate formation entry in data set [19] is given as “do not form aggregates”. Moreover, the “decrease in cell viability caused by 0.05% Tween-80” value in [4] turned out to be 3.2%. For the same compound, the IC50 in data set [4] (Homo sapiens, MCF7, 72 h) was greater than 500 µM; in data set [3] (Homo sapiens, HepG2, 72 h, read-out: IC50 Value in Specific Cell Line, HepG2, MTT, 72 h, n.d. = IC50 not achieved within concentrations tested) it was 480 ± 54.1 µM. For the same compound, in data set [2], the CC50 was 218.2 ± 1.6 µM. In addition, in data set [9], the hemolysis at 4 h was 11.2 to 11.9%. The “nKa (global affinity constant, HSA)” value in data set [20] was 62000 M⁻¹.

Source of the values: paper PMC11855866 (International Journal of Molecular Sciences, 2025).
